The structures appear in SMILES notation. Bounds are passed on as bounds.

The test concerns A549. The test can be described thus: Cytotoxicity against human A549 cells after 2 days by resazurin reduction assay. The settings on record: A549, 48 h. Background: The colour change of resazurin is a common sign of viable cells or microbes.
Usually IC50 stands for the point on the concentration scale where inhibition reaches its midpoint. A higher IC50 goes with a need for much substance. Take `CCC[C@H]1O[C@H](CC(=O)O)C[C@]2(SC[C@H](NC(C)=O)C(=O)O)C(=O)c3cccc(O)c3C(=O)[C@@]12O`: the IC50 was over 80 µM.

`CCC[C@H]1O[C@H](CC(=O)O)C[C@@]2(O)C(=O)c3cccc(O)c3C(=O)[C@@]12O` registered an IC50 of over 80 µM.

In turn, `CCC[C@H]1O[C@H](CC(=O)O)C[C@]2(O)C(=O)c3cccc(O)c3C(=O)[C@@]12O` yielded an IC50 of over 80 µM.

`CCC[C@H]1O[C@H](CC(=O)O)C[C@]23O[C@]12C(=O)c1c(O)cccc1[C@@H]3O` yielded an IC50 of over 80 µM.

With `CCC[C@H]1O[C@H](CC(=O)OC)[C@H](O)C2=C1C(=O)c1c(O)cccc1C2=O`, the IC50 is 0.35 µM.

For `CCC[C@H]1O[C@H](CC(=O)O)C[C@@H]2C(=O)c3cccc(O)c3C(=O)[C@]21O`, the IC50 was over 80 µM.

`CCC[C@H]1O[C@H](CC(=O)O)CC2=C1C(=O)c1c(O)cccc1C2=O` [DEOXYFRENOLICIN]: the IC50 was found to be 1.07 µM.

The compound `CCC[C@H]1O[C@@H]2CC(=O)O[C@@H]2C2=C1C(=O)c1c(O)cccc1C2=O` [FRENOLICIN B] yielded an IC50 of 0.28 µM.

On to `CCC[C@H]1O[C@H](CC(=O)O)C[C@]23O[C@]12C(=O)c1c(O)cccc1C3=O` [FRENOLICIN], for which half-maximal inhibition (IC50) required 5.77 µM.

The record behind these values is ChEMBL document CHEMBL2407088, “Frenolicins C-G, pyranonaphthoquinones from Streptomyces sp. RM-4-15” (J Nat Prod, 2013).
